{"source": "patent US20130197016A1", "about": "“DOSING REGIMES FOR THE TREATMENT OF OCULAR VASCULAR DISEASE” (priority 2010, published 2013)", "key": {"[1]": {"assay": "Ocular PK in Brown Norway rats following a single oral dose (Example 5)", "type": "in vivo", "details": "for Kp / AUC(0-t): Brown Norway, rat; for Kp: retina/plasma, po; for AUC(0-t): sampling 6-144 hrs; for Concentration over time in posterior eye cup and retina (words, FIG. 3-6): single oral dose per Table 3 (Compound 1 30 mg/kg, Compound 2 10 mg/kg, Compound 9 10 mg/kg)", "protocol": "Three month old Brown Norway rats were administered orally with active agent of Table 1 at the dosing concentration and formulation specified in Table 3 infra. […] The ocular tissues collected were the retina and the posterior eye cup.\nOcular tissues were homogenized and plasma proteins precipitated and drug concentration was analyzed by LC-MS/MS."}, "[2]": {"tested_on": "laser-induced choroidal neovascularization (CNV) area", "assay": "Rat laser-induced choroidal neovascularization (CNV) model; daily administration (Example 1)", "type": "in vivo, Brown Norway rats", "details": "264 h, read-out: Efficacy Daily % (Ex. 1); for inhibition in vivo at 1 mg/kg: 1 mg/kg oral daily to day 11 or 12, formulation A; for inhibition in vivo at 0.3 mg/kg: 0.3 mg/kg oral daily to day 11 or 12, formulation A", "protocol": "Three month old Brown Norway rats were administered with placebo or active agent of Table 1 at the dosing concentration and formulation specified in Table 2 infra about one hour prior to laser application. The rat eyes were dilated with one drop of phenylephrine and cyclopentolate (Altaire Pharmaceuticals inc. Aqueboque, N.Y. and Akorn Inc. Lake Forest, Ill.) and then immobilized. Each eye was administered four laser burns 2-3 disc diameters from the optic nerve with an Oculight GLx 532 nm laser (Iridex). Each study group had 10 rats, 20 eyes and 80 data points.\nAfter laser insult, the rats were administered placebo or the compounds of Table 1 at the dosing concentration and formulation specified in Table 2 daily from day 1 to day 11 or 12. Immediately before harvesting the eyes, rodents were injected i.v. with a 2,000 kd fluorescein isothiocyanate (FITC) dextran vascular label. Tissues were harvested about 24 hours after the last dose was administered.\nEyes were fixed with 4% paraformaldehyde and the retinal pigment epithelium(RPE)/choroid/sclera complexes dissected and placed onto microscope slides. Fluorescent images of each CNV lesion were captured and lesion areas were quantified on masked data using Axiovision software (Version 4.5 Zeiss). Inter-group differences were analyzed by one-way analysis of variance (ANOVA) with a Neuman-Keuls post hoc analysis (Prism v. 4.02 by GraphPad Software, Inc. La Jolla Calif.). Efficacy is defined herein to mean the percentage reduction in CNV area after treatment compared to placebo.\nEach group consisted of 10 rats, 4 laser burns/eye, and 80 data points/group. Assay length was 11 or 12 days after laser (1 mg/kg n=2, 3 mg/kg n=5, 10 mg/kg n=7, 30 mg/kg n=1)."}, "[3]": {"tested_on": "laser-induced choroidal neovascularization (CNV) area", "assay": "Rat laser-induced CNV model; weekly administration (Example 3)", "type": "in vivo, Brown Norway rats", "details": "for inhibition in vivo at 1 mg/kg: 1 mg/kg weekly (before laser, day 6 and 13); for Efficacy in a weekly dosing regimen: weekly dosing at doses of Table 2, compared to daily; for inhibition in vivo at 0.3 mg/kg: 0.3 mg/kg weekly (before laser, day 6 and 13); for inhibition in vivo at 3 mg/kg: 3 mg/kg weekly (before laser, day 6 and 13), formulation A (B for Compound 9)", "protocol": "After laser insults, the rats were administered the compounds of Table 1 formulated as specified in Table 2 or placebo on day 6 and 13."}, "[4]": {"tested_on": "neovascular adult macular degeneration (AMD)", "details": "oral, alone or with intravitreal bevacizumab, daily or thrice weekly, three patients; cited from earlier work"}, "[5]": {"details": "percent reduction in CNV area vs vehicle control"}, "[6]": {"details": "Rattus norvegicus, 144 h, formulation A, percent reduction in CNV area vs vehicle control, read-out: Efficacy Weekly % (Ex. 3)"}, "[7]": {"details": "3 mg/kg oral daily to day 11 or 12, formulation A (B for Compound 9), percent reduction in CNV area vs vehicle control"}, "[8]": {"details": "Rattus norvegicus, 144 h, percent reduction in CNV area vs vehicle control, read-out: Efficacy Weekly % (Ex. 3)"}}, "note": "“Also recorded” adds a separate entry of the source. Like-named read-outs stand apart in the source and are kept apart here."}
{"smiles": "Cc1ccc(Nc2nccc(N(C)c3ccc4c(C)n(C)nc4c3)n2)cc1S(N)(=O)=O", "note": "[Compound 1, 5-[[4-[(2,3-Dimethyl-2H-indazol-6-yl)methylamino]-2-pyrimidinyl]amino]-2-methylbenzolsulfonamide]", "values": [{"measurement": "Kp", "setting": "[1]; 30 mg/kg", "value": 0.2}, {"measurement": "AUC(0-t)", "setting": "[1]; single oral dose 30 mg/kg, plasma, read-out: AUC(last) Plasma", "value": 583, "unit": "µM·h"}, {"measurement": "AUC(0-t)", "setting": "[1]; single oral dose 30 mg/kg, posterior eye cup, read-out: AUC(last) PEC", "value": 6820, "unit": "µM·h"}, {"measurement": "AUC(0-t)", "setting": "[1]; single oral dose 30 mg/kg, retina, read-out: AUC(last) Retina", "value": 132, "unit": "µM·h"}, {"measurement": "Plasma exposure over time (words, FIG. 3-4)", "setting": "[1]; single oral dose per Table 3 (Compound 1 30 mg/kg, Compound 2 10 mg/kg)", "value": "increased plasma exposure throughout the duration of the week after administration"}, {"measurement": "Concentration over time in posterior eye cup and retina (words, FIG. 3-6)", "setting": "[1]", "value": "sustained ocular exposure in the posterior eye cup tissues for at least a week"}, {"measurement": "inhibition in vivo at 30 mg/kg", "setting": "[2]; 30 mg/kg oral daily to day 11 or 12, formulation A, percent reduction in CNV area vs vehicle control", "value": 42, "unit": "%"}, {"measurement": "inhibition in vivo at 30 mg/kg", "setting": "[3]; Rattus norvegicus, 144 h, 30 mg/kg weekly (before laser, day 6 and 13), formulation A, percent reduction in CNV area vs vehicle control, read-out: Efficacy Weekly % (Ex. 3)", "value": 50, "unit": "%"}]}
{"smiles": "Nc1cc(Oc2ccc3c(C(=O)Nc4cccc(C(F)(F)F)c4)cccc3c2)ncn1", "note": "[Compound 3, 6-(6-Amino-pyrimidin-4-yloxy)-naphthalene-1-carboxylic acid (3-trifluoromethyl-phenyl)-amide]", "values": [{"measurement": "inhibition in vivo at 1 mg/kg", "setting": "[2]; [5]", "value": 63, "unit": "%"}, {"measurement": "inhibition in vivo at 1 mg/kg", "setting": "[3]; [6]", "value": 57, "unit": "%"}, {"measurement": "Efficacy in a weekly dosing regimen", "setting": "[3]", "value": "greatest level of efficacy"}]}
{"smiles": "CC(=O)N1Cc2ncnc(Oc3ccc4c(ccn4C(=O)Nc4cc(C5CC5)on4)c3)c2C[C@@H]1C", "note": "[Compound 4, (−)-5-((S)-7-Acetyl-6-methyl-5,6,7,8-tetrahydro-pyrido[3,4-d]pyrimidin-4-yloxy)-indole-1-carboxylic acid (5-cyclopropyl-isoxazol-3-yl)-amide]", "values": [{"measurement": "inhibition in vivo at 0.3 mg/kg", "setting": "[2]; [5]", "value": 96, "unit": "%"}, {"measurement": "inhibition in vivo at 0.3 mg/kg", "setting": "[3]; [6]", "value": 50, "unit": "%"}]}
{"smiles": "CC1(c2cc(NC(=O)n3ccc4cc(Oc5ncnc6c5CCNC6)ccc43)[nH]n2)CC1", "note": "[Compound 5, 5-(5,6,7,8-Tetrahydro-pyrido[3,4-d]pyrimidin-4-yloxy)-indole-1-carboxylic acid [5-(1-methyl-cyclopropyl)-2H-pyrazol-3-yl]-amide]", "values": [{"measurement": "inhibition in vivo at 10 mg/kg", "setting": "[2]; 10 mg/kg oral daily to day 11 or 12, formulation A, percent reduction in CNV area vs vehicle control", "value": 85, "unit": "%"}, {"measurement": "inhibition in vivo at 10 mg/kg", "setting": "[3]; Rattus norvegicus, 144 h, 10 mg/kg weekly (before laser, day 6 and 13), formulation A, percent reduction in CNV area vs vehicle control, read-out: Efficacy Weekly % (Ex. 3)", "value": 50, "unit": "%"}]}
{"smiles": "COc1cc2nccc(Oc3ccc(NC(=O)Nc4cc(C)on4)c(Cl)c3)c2cc1OC", "note": "[Compound 6, 1-(2-chloro-4-((6,7-dimethoxyquinolin-4-yl)oxy)phenyl)-3-(5-methylisoxazol-3-yl)urea]", "values": [{"measurement": "Kp", "setting": "[1]; 0.3 mg/kg", "value": 0.6}, {"measurement": "AUC(0-t)", "setting": "[1]; single oral dose 0.3 mg/kg, plasma, read-out: AUC(last) Plasma", "value": 1.2, "unit": "µM·h"}, {"measurement": "AUC(0-t)", "setting": "[1]; single oral dose 0.3 mg/kg, posterior eye cup, read-out: AUC(last) PEC", "value": 83.5, "unit": "µM·h"}, {"measurement": "AUC(0-t)", "setting": "[1]; single oral dose 0.3 mg/kg, retina, read-out: AUC(last) Retina", "value": 2.47, "unit": "µM·h"}, {"measurement": "Retinal to plasma exposure ratio, comparison among compounds", "setting": "[1]; single oral dose per Table 3 (Compound 2 10 mg/kg, Compound 6 0.3 mg/kg)", "value": "lower retinal to plasma exposure ratio than Compound 2"}, {"measurement": "inhibition in vivo at 0.3 mg/kg", "setting": "[2]; [5]", "value": 79, "unit": "%"}, {"measurement": "inhibition in vivo at 1 mg/kg", "setting": "[2]; [5]", "value": 96, "unit": "%"}, {"measurement": "Loss of efficacy in weekly dosing compared to daily dosing", "setting": "[3]; 0.3 mg/kg", "value": 39, "unit": "%"}, {"measurement": "inhibition in vivo at 0.3 mg/kg", "setting": "[3]; [6]", "value": 40, "unit": "%"}, {"measurement": "inhibition in vivo at 1 mg/kg", "setting": "[3]; [6]", "value": 90, "unit": "%"}, {"measurement": "Efficacy in a weekly dosing regimen", "setting": "[3]", "value": "greatest level of efficacy"}]}
{"smiles": "O=C(Nc1cccc(C(F)(F)F)c1)c1cccc2cc(Oc3cc(CO)ncn3)ccc12", "note": "[Compound 7, 6-(6-Hydroxymethyl-pyrimidin-4-yloxy)-naphthalene-1-carboxylic acid (3-trifluoromethyl-phenyl)-amide]", "values": [{"measurement": "inhibition in vivo at 3 mg/kg", "setting": "[2]; [7]", "value": 96, "unit": "%"}, {"measurement": "inhibition in vivo at 3 mg/kg", "setting": "[3]; [8]", "value": 46, "unit": "%"}]}
{"smiles": "O=C(Nc1cc(C2CC2)on1)n1ccc2cc(Oc3ncnc4c3CNC4)ccc21", "note": "[Compound 8, 5-(6,7-dihydro-5H-pyrrolo[3,4-d]pyrimidin-4-yloxy)-indole-1-carboxylic acid (5-cyclopropyl-isoxazol-3-yl)-amide]", "values": [{"measurement": "inhibition in vivo at 3 mg/kg", "setting": "[2]; [7]", "value": 88, "unit": "%"}, {"measurement": "inhibition in vivo at 3 mg/kg", "setting": "[3]; [8]", "value": 26, "unit": "%"}, {"measurement": "Efficacy in a weekly dosing regimen", "setting": "[3]", "value": "least efficacy"}]}
{"smiles": "CNC(=O)c1cc(Oc2ccc(NC(=O)Nc3ccc(Cl)c(C(F)(F)F)c3)cc2)ccn1", "note": "[Compound 9, 4-[4-[[4-chloro-3-(trifluoromethyl)phenyl]carbamoylamino]phenoxy]-N-methyl-pyridine-2-carboxamide]", "values": [{"measurement": "Kp", "setting": "[1]; 10 mg/kg", "value": 2.1}, {"measurement": "AUC(0-t)", "setting": "[1]; single oral dose 10 mg/kg, plasma, read-out: AUC(last) Plasma", "value": 151, "unit": "µM·h"}, {"measurement": "AUC(0-t)", "setting": "[1]; single oral dose 10 mg/kg, posterior eye cup, read-out: AUC(last) PEC", "value": 82, "unit": "µM·h"}, {"measurement": "AUC(0-t)", "setting": "[1]; single oral dose 10 mg/kg, retina, read-out: AUC(last) Retina", "value": 95.1, "unit": "µM·h"}, {"measurement": "Concentration over time in posterior eye cup and retina (words, FIG. 3-6)", "setting": "[1]", "value": "substantially similar at each sampling time point"}, {"measurement": "Benefit in neovascular AMD patients", "setting": "[4]", "value": "uncertain benefit"}, {"measurement": "inhibition in vivo at 3 mg/kg", "setting": "[2]; po", "value": 90, "unit": "%"}, {"measurement": "inhibition in vivo at 3 mg/kg", "setting": "[3]; [8]", "value": 26, "unit": "%"}, {"measurement": "Efficacy in a weekly dosing regimen", "setting": "[3]", "value": "least efficacy; also recorded: absence of efficacy"}]}
{"smiles": "CNCc1cc(Oc2ccc3c(ccn3C(=O)Nc3cc(C(F)(F)F)n(C)n3)c2)ncn1", "note": "[Compound 10, 5-(6-Methylaminomethyl-pyrimidin-4-yloxy)-indole-1-carboxylic acid (1-methyl-5-trifluoromethyl-1H-pyrazol-3-yl)-amide]", "values": [{"measurement": "inhibition in vivo at 1 mg/kg", "setting": "[2]; [5]", "value": 88, "unit": "%"}, {"measurement": "inhibition in vivo at 1 mg/kg", "setting": "[3]; [6]", "value": 23, "unit": "%"}, {"measurement": "Efficacy in a weekly dosing regimen", "setting": "[3]", "value": "least efficacy"}]}
